Structures can show the parent of a compound that is named as a salt.
Legend:
[1] = system: Brain-Specific Receptors of Rats (3H-benzodiazepine binding); experiment: Inhibition of the binding of 3H-benzodiazepine to brain-specific receptors of rats; parameters: species or system rat (Wistar strain, whole cortex); conditions: rat cortex P2 fraction, 3H-diazepam 1.5 nM or 3H-flunitrazepam 1.0 nM
Source text: Another test utilized for the determination of anxiolytic activity is the measurement of the ability of a test compound to inhibit the binding of tritiated benzodiazepines to brain-specific receptors of mammals. A modification of the method described by R. F. Squires, et al., Nature, 266 (21), 732 (Apr., 1977) and H. Mohler, et al., Science, 198, 849 (1977) was employed. […] The test compounds were solubilized in dimethylformamide, acetic acid, ethanol or hydrochloric acid. […] (1) resuspended in twice the original volume in hypotonic 50 mM Tris.HCl (pH 7.4), or (2) resuspended in one-half the original volume in hypotonic 10 mM Tris.HCl (pH 7.4) and frozen (-20° C.) until time. of use. Frozen P2 preparations were thawed and resuspended in four times the original homogenizing volume at time of assay. […] Incubation for 30 minutes proceeded in ice and was terminated by filtration, under vacuum, through glass fiber filters. The filters were washed twice with 5 ml of ice-cold 50 mM Tris.HCl (pH 7.4) and placed in scintillation vials. After drying at 50°-60° C. for 30 minutes, 10 ml of diluent was added and the radioactivity determined in a scintillation counter. Inhibition of binding was calculated by the difference between total binding and binding in the presence of test compound, divided by the total binding, X 100.

[2] = system: Spontaneously Hypertensive Rats; experiment: Hypotensive activity: mean arterial blood pressure in spontaneously hypertensive rats; type: in vivo, rat (Okamoto strain, male); conditions: SHR, gavage, 100 mg/kg or less, two doses 24 h apart, measured at 28 hours; average MABP of rats used 160±1.5 mm; 100 mg/kg
Procedure, shortened: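 Male 16-week-old Okamoto SHR (baseline MAP 160±1.5 mm Hg) dosed by gavage at ≤100 mg/kg in 2% starch with 25 ml/kg 0.9% NaCl load, redosed at 24 h without saline; mean arterial pressure measured at 28 h after first dose.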

[3] = system: mice (anoxic induced amnesia); experiment: Passive Avoidance Anoxic Induced Amnesia Test; type: in vivo, mouse (Swiss-Webster, middle-aged); conditions: intraperitoneal, vs saline control
Source text: A useful in vivo test associated with decreased neural function in mammals is the Passive Avoidance Anoxic Induced Amnesia Test. This test is used to determine the attenuation of anoxic induced amnesia in mice treated with drug, as compared to saline treated control animals with no drug. A shock-motivated, single trial, step-through passive avoidance procedure is used. Groups of 25 Swiss-Webster, middle-aged mice (9 months of age) are placed singly in the front chamber of a 2-chamber box and are allowed to voluntarily cross into the rear chamber. As soon as the mouse enters the rear chamber, a door automatically traps the animal and a mild electric shock (0.4 mA for 4 seconds) is delivered to its feet. Following the foot shock, the mice are initially placed in an anoxic environment (0% oxygen) for 12 seconds, which quickly induces unconsciousness. […] All testing is performed 24 hours later, and in all cases the mice appear fully recovered from the previous anoxic/hypoxic treatment. […] Control animals are injected intraperitoneally only with saline at 0.01 ml/g of body weight. The latent period prior to entering the rear chamber is recorded for both training and testing sessions. The greater the memory of being shocked, the greater the reluctance to enter into the rear chamber and the higher will be the latent period prior to re-entry. […]

[4] = system: mice (tetrabenazine-induced depression); experiment: Tetrabenazine-induced depression (antidepressant); type: in vivo, mouse; parameters: key: Active: A compound is considered active if 3 or more of 10 mice are protected against the tetrabenazine-induced effects; conditions: 25 mg/kg, oral, 10 mice
Procedure: The compounds of the invention are useful as antidepressant agents in warm-blooded animals as verified in the following tests. First, the antidepressant properties of these compounds were tested by measuring their ability to counteract depression induced in animals by the administration of tetrabenazine methanesulfonate. Each test compound was administered orally to 10 mice at a dose of 25 mg/kg of body weight. Thirty minutes later, tetrabenazine methane sulfonate was administered intraperitoneally to each mouse at a dose of 39 mg/kg of body weight, which dose is known to depress markedly the exploratory behavior of normal mice. Thirty minutes later the mice were tested for their exploratory behavior as described by E. Greenblatt and A. C. Osterberg, Toxicology and Applied Pharmacology, 7. 566-578 (1965). A compound is considered active if 3 or more of 10 mice are protected against the tetrabenazine-induced effects.

[5] = system: mice (hypoxic environment); experiment: Hypoxic survival test; type: in vivo, mouse (Royal Hart); conditions: intraperitoneal, 10% oxygen, 5 minutes; for % Survivors / responders at 100 mg/kg: 100 mg/kg
Procedure, shortened: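 Groups of 20 Royal Hart mice (6 weeks old) dosed i.p. with compound in saline at 1–200 mg/kg, 30 minutes before exposure to 10% oxygen/90% carbon dioxide; survival scored after 5 minutes. Saline and physostigmine (0.125 mg/kg i.p.) groups run in parallel.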

[6] = target: T1, human platelet membranes (3H-imipramine receptor) (Homo sapiens, UniProt P31645); experiment: 3H-imipramine binding to human platelet membranes
T1 construct: Fresh human platelet concentrates (less than 48 hours old) were obtained from the New York Blood Center; tissue New York Blood Center; host or cells: human blood platelets, membranes
Procedure: The activity of the compounds of the invention as antidepressant agents was further verified# in the following test which measures the ability of a test compound to inhibit 3H-imipramine binding to human platelet membranes.
Platelet membranes were obtained using the procedure described by Wennogle, L. et al., Pharmac. Biochem. Behav., 15. 975 (1981). Fresh human platelet concentrates (less than 48 hours old) were obtained from the New York Blood Center. These concentrates were prepared in a citrate-dextrose anticoagulant using standard techniques. Platelets were washed twice by centrifugation (2500×G, 10 minutes) in 50 volumes of an antiprotease buffer containing 0.005M Tris potassium chloride, 0.12M sodium chloride, 0.05M Tris pH 7.5, 0.025 Units/ml aprotinin, 0.05 μg/m pepstatin, 2×10^-5 bacitracin, 3 mM ethylenediaminetetraacetic acid and 1.0 mM ethyleneglycol-bis (β-aminoethylether)N,N'-tetra-acetic acid. […] All procedures were conducted at 0° C. using plastic laboratory-ware throughout the platelet membrane preparation. Platelets were resuspended in 20 volumes of buffer and sonicated 3 times using 10 second bursts of a Branson sonifier (cell disrupter 350) at setting 6 (standard 3/4 inch horn), keeping the sample on ice throughout the procedure. Platelet membranes were then washed twice at 18,000×G for 20 minutes with 50 volumes of the antiprotease buffer and resuspended to 3.0 mg. protein/ml using the Bradford protein analysis with bovine gamma globulin as standard. Membranes were used immediately or stored frozen in liquid nitrogen.
The displacement of 3H-imipramine binding to human platelet membranes was performed essentially as described by Paul, S. M., et al., Life Sci., 953 (1980) with the following modifications. Membranes (0.3 mg protein) were suspended in antiprotease buffer with both […] 3H-imipramine (New England Nuclear) and displacing drug or buffer in a total volume of 250 #1 in glass test tubes. Samples were incubated for 90 minutes at 0° C., then diluted to 5 ml in 0.12M sodium chloride, 0.005M potassium chloride, 0.05M Tris pH 7.5 (wash buffer) and immediately filtered through GF/B Whatman Filters and washed twice with 5 ml of wash buffer. Filters were counted in a liquid scintillation counter after addition of Beckman HP Scintillant.
Non-specific binding of 3H-imipramine was defined as that fraction (generally 35%) of radioactivity that was not displaced by 10 μM desmethylimipramine. Specific binding was determined by subtraction of this non-specific level from values for total 3H-imipramine binding which were measured by incubating 3H-imipramine in the absence of displacing drug. Compounds were tested in duplicate test tubes at a concentration of 10 μM. Compounds which inhibited binding by more than 50% were considered to be active.

[7] = Mus musculus, ip, 5 min, read-out: % Survivors

T1 sequence (P31645 whole entry): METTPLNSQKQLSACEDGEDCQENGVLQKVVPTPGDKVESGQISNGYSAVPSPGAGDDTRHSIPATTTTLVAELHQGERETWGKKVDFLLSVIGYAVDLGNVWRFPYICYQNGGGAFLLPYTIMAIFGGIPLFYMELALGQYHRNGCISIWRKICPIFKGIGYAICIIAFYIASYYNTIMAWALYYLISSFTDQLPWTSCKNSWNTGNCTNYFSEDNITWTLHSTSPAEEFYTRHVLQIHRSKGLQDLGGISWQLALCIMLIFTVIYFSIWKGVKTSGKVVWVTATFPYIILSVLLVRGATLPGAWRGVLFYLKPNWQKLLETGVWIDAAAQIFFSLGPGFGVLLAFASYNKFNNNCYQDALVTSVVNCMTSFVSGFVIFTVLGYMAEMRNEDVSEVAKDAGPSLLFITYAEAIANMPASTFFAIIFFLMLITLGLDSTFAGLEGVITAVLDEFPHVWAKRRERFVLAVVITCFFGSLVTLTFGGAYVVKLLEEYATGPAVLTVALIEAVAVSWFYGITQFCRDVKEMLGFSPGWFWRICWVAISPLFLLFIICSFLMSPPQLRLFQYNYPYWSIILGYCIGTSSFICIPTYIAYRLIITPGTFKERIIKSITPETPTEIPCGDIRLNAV

N#Cc1cnn2c1N(C(=O)CN1CCN(Cc3ccccc3)CC1)CC=C2c1cccc(C(F)(F)F)c1 [Example 17, 4,5-Dihydro-4-[[4-(phenylmethyl)-1-piperazinyl]acetyl]-7-[3-(trifluoromethyl)phenyl]pyrazolo[1,5-a]pyrimidine-3-carbonitrile]
% Inhibition (3H-benzodiazepine binding) [1]: 17%
MABP/mmHg (mean arterial blood pressure) [2]: 120 mmHg
% Improvement ([3]; 100 mg/kg): 65%
% Improvement ([3]; 200 mg/kg): 93%
Result (protection against tetrabenazine-induced depression) [4]: Active
% Survivors [5]: 48%
responders at 10 mg/kg ([5]; Mus musculus, ip, 5 min, 10 mg/kg, read-out: % Survivors): 40%

COc1cccc(CN2CCN(CC(=O)N3CC=C(c4cccc(C(F)(F)F)c4)n4ncc(C#N)c43)CC2)c1 [Example 20, 4,5-Dihydro-4-[[4-[(3-methoxyphenyl)methyl]-1-piperazinyl]acetyl]-7-[3-(trifluoromethyl)phenyl]pyrazolo[1,5-a]pyrimidine-3-carbonitrile]
Result (protection against tetrabenazine-induced depression) [4]: Active
inhibition at 10 µM [6]: 78%

N#Cc1cnn2c1N(C(=O)CN1CCN(Cc3ccc4c(c3)OCO4)CC1)CC=C2c1cccc(C(F)(F)F)c1 [Example 23, 4-[[4-(1,3-Benzodioxol-5-ylmethyl)-1-piperazinyl]acetyl]-4,5-dihydro-7-[3-(trifluoromethyl)phenyl]pyrazolo[1,5-a]pyrimidine-3-carbonitrile]
Result (protection against tetrabenazine-induced depression) [4]: Active
inhibition at 10 µM [6]: 81%

COc1cccc(CN2CCN(CC(=O)N3CC=C(c4cccc(C(F)(F)F)c4)n4ncc(C#N)c43)CC2)c1.Cl.Cl [Example 79, 4,5-Dihydro-4-[[4-[(3-methoxyphenyl)methyl]-1-piperazinyl]acetyl]-7-[3-(trifluoromethyl)phenyl]pyrazolo[1,5-a]pyrimidine-3-carbonitrile, dihydrochloride]
Result (protection against tetrabenazine-induced depression) [4]: Active

Cl.N#Cc1cnn2c1N(C(=O)CN1CCN(Cc3ccccc3)CC1)CC=C2c1cccc(C(F)(F)F)c1 [Example 94, 4,5-Dihydro-4-[[4-(phenylmethyl)-1-piperazinyl]acetyl]-7-[3-(trifluoromethyl)phenyl]pyrazolo[1,5-a]pyrimidine-3-carbonitrile, hydrochloride]
% Improvement ([3]; 10 mg/kg): 30%
% Survivors [5]: 83%

N#Cc1cnn2c1N(C(=O)CN1CCN(CC#CCN3CCCC3=O)CC1)CC=C2c1cccc(C(F)(F)F)c1 [Example 109, 4,5-Dihydro-4-[[4-[4-(2-oxo-1-pyrrolidinyl)-2-butynyl]-1-piperazinyl]acetyl]-7-[3-(trifluoromethyl)phenyl]pyrazolo[1.5-a]pyrimidine-3-carbonitrile]
% Improvement ([3]; 1 mg/kg): 63%
responders at 100 mg/kg [5, 7]: 68%

CC1=C(c2ccc(Cl)cc2)n2ncc(C#N)c2N(C(=O)CN2CCN(Cc3cccc(Cl)c3)CC2)C1 [Example 133, 7-(4-Chlorophenyl)-4-[[4-[(3-chlorophenyl)methyl]-1-piperazinyl]acetyl]-4,5-dihydro-6-methylpyrazolo[1,5-a]pyrimidine-3-carbonitrile. dihydrochloride]
% Improvement ([3]; 10 mg/kg): 66%
responders at 100 mg/kg [5, 7]: 62%
responders at 200 mg/kg ([5]; Mus musculus, ip, 5 min, 200 mg/kg, read-out: % Survivors): 73%

CC(c1ccccc1)N1CCN(CC(=O)N2CC=C(c3cccc(C(F)(F)F)c3)n3ncc(C#N)c32)CC1 (stereo not shown) [Example 141]
% Improvement ([3]; 25 mg/kg): 39%
responders at 25 mg/kg ([5]; Mus musculus, ip, 5 min, 25 mg/kg, read-out: % Survivors): 4%

N#Cc1cnn2c1N(C(=O)CN1CCN(Cc3cnn(-c4ccccc4)n3)CC1)CC=C2c1cccc(C(F)(F)F)c1 [Example 146]
% Improvement ([3]; 100 mg/kg): 92%
responders at 100 mg/kg [5, 7]: 52.5%

N#Cc1cnn2c1N(C(=O)CN1CCN(Cc3ccccc3)CC1)CC=C2c1ccccc1 [Example 147, 4,5-Dihydro-7-phenyl-4-[[4-(phenylmethyl)-1-piperazinyl]acetyl]pyrazolo[1,5-a]pyrimidine-3-carbonitrile]
% Improvement ([3]; 25 mg/kg): 45%
responders at 100 mg/kg [5, 7]: 50%

— patent US4963553A, “4-[(substituted) alkylcarbonyl]-4,5-dihydro- and -4,5,6,7-tetrahydro-7-[(substituted)phenyl]pyrazolo[1,5-a]pyrimidines” (American Cyanamid Co., priority 1988, dated 1990)
